#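 Five concentrations, 48 hours, 96-well plates. TGI: total growth inhibition.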
# What was measured:
# Test in all cases: NCI anticancer screen, dose series, 48 h
# CAKI-1 renal = tested on: CAKI-1 renal
# HCC-2998 colon = tested on: HCC-2998 colon
# A549 NSCLC = tested on: A549 NSCLC
# SR leukemia = tested on: SR leukemia
# SW-620 colon = tested on: SW-620 colon
# SNB-75 CNS = tested on: SNB-75 CNS
# MDA-MB-231 breast = tested on: MDA-MB-231 breast
# 786-0 renal = tested on: 786-0 renal
# MDA-MB-435 = tested on: MDA-MB-435
# IGROV1 ovarian = tested on: IGROV1 ovarian
# PC-3 prostate = tested on: PC-3 prostate
# LOX IMVI melanoma = tested on: LOX IMVI melanoma
# SNB-19 CNS = tested on: SNB-19 CNS
# OVCAR-3 ovarian = tested on: OVCAR-3 ovarian
# DU-145 prostate = tested on: DU-145 prostate
# HL-60(TB) leukemia = tested on: HL-60(TB) leukemia
# OVCAR-4 ovarian = tested on: OVCAR-4 ovarian
# KM12 colon = tested on: KM12 colon
# SK-MEL-2 melanoma = tested on: SK-MEL-2 melanoma
# NCI-H522 lung = tested on: NCI-H522 lung
# MALME-3M melanoma = tested on: MALME-3M melanoma
# NCI-H226 lung = tested on: NCI-H226 lung
# OVCAR-8 ovarian = tested on: OVCAR-8 ovarian
# HOP-62 NSCLC = tested on: HOP-62 NSCLC
# UACC-62 melanoma = tested on: UACC-62 melanoma
# UACC-257 melanoma = tested on: UACC-257 melanoma
# HCT-15 colon = tested on: HCT-15 colon
# NCI-H23 lung = tested on: NCI-H23 lung
# TK-10 renal = tested on: TK-10 renal
# COLO 205 colon = tested on: COLO 205 colon
# T-47D breast = tested on: T-47D breast
# SK-OV-3 ovarian = tested on: SK-OV-3 ovarian
# K-562 leukemia = tested on: K-562 leukemia
# CCRF-CEM leukemia = tested on: CCRF-CEM leukemia
# M14 melanoma = tested on: M14 melanoma
# A498 renal = tested on: A498 renal
# HS 578T breast = tested on: HS 578T breast
# MCF7 breast = tested on: MCF7 breast
# SK-MEL-28 melanoma = tested on: SK-MEL-28 melanoma
# HCT-116 colon = tested on: HCT-116 colon
# SF-539 CNS = tested on: SF-539 CNS
# UO-31 renal = tested on: UO-31 renal
# NCI-H460 lung = tested on: NCI-H460 lung
# HOP-92 NSCLC = tested on: HOP-92 NSCLC
# U251 CNS = tested on: U251 CNS
# NCI/ADR-RES ovarian = tested on: NCI/ADR-RES ovarian
# SN12C renal = tested on: SN12C renal
# ACHN renal = tested on: ACHN renal
# RXF 393 renal = tested on: RXF 393 renal
# SK-MEL-5 melanoma = tested on: SK-MEL-5 melanoma
# BT-549 breast = tested on: BT-549 breast
# SF-268 CNS = tested on: SF-268 CNS
# MDA-N = tested on: MDA-N
# RPMI-8226 leukemia = tested on: RPMI-8226 leukemia
# SF-295 CNS = tested on: SF-295 CNS
structure (smiles),measurement,setting,value
C[N+](C)(C)CCN(Cc1cccs1)c1ccccn1,TGI,CAKI-1 renal,> 100 µM
same,TGI,HCC-2998 colon,> 100 µM
same,TGI,A549 NSCLC,> 100 µM
same,TGI,SR leukemia,> 100 µM
same,TGI,SW-620 colon,> 100 µM
same,TGI,SNB-75 CNS,> 100 µM
same,TGI,MDA-MB-231 breast,> 100 µM
same,TGI,786-0 renal,> 100 µM
same,TGI,MDA-MB-435,> 100 µM
same,TGI,IGROV1 ovarian,> 100 µM
same,TGI,PC-3 prostate,> 100 µM
same,TGI,LOX IMVI melanoma,> 100 µM
same,TGI,SNB-19 CNS,> 100 µM
same,TGI,OVCAR-3 ovarian,> 100 µM
same,TGI,DU-145 prostate,> 100 µM
same,TGI,HL-60(TB) leukemia,> 100 µM
same,TGI,OVCAR-4 ovarian,> 100 µM
same,TGI,KM12 colon,> 100 µM
same,TGI,SK-MEL-2 melanoma,> 100 µM
same,TGI,NCI-H522 lung,> 100 µM
same,TGI,MALME-3M melanoma,> 100 µM
same,TGI,NCI-H226 lung,> 100 µM
same,TGI,OVCAR-8 ovarian,> 100 µM
same,TGI,HOP-62 NSCLC,> 100 µM
same,TGI,UACC-62 melanoma,> 100 µM
same,TGI,UACC-257 melanoma,> 100 µM
same,TGI,HCT-15 colon,> 100 µM
same,TGI,NCI-H23 lung,> 100 µM
same,TGI,TK-10 renal,> 100 µM
same,TGI,COLO 205 colon,> 100 µM
same,TGI,T-47D breast,> 100 µM
same,TGI,SK-OV-3 ovarian,> 100 µM
same,TGI,K-562 leukemia,> 100 µM
same,TGI,CCRF-CEM leukemia,> 100 µM
same,TGI,M14 melanoma,> 100 µM
same,TGI,A498 renal,> 100 µM
same,TGI,HS 578T breast,> 100 µM
same,TGI,MCF7 breast,> 100 µM
same,TGI,SK-MEL-28 melanoma,> 100 µM
same,TGI,HCT-116 colon,> 100 µM
same,TGI,SF-539 CNS,> 100 µM
same,TGI,UO-31 renal,> 100 µM
same,TGI,NCI-H460 lung,> 100 µM
same,TGI,HOP-92 NSCLC,73.9 µM
same,TGI,U251 CNS,> 100 µM
same,TGI,NCI/ADR-RES ovarian,> 100 µM
same,TGI,SN12C renal,> 100 µM
same,TGI,ACHN renal,> 100 µM
same,TGI,RXF 393 renal,> 100 µM
same,TGI,SK-MEL-5 melanoma,> 100 µM
same,TGI,BT-549 breast,> 100 µM
same,TGI,SF-268 CNS,> 100 µM
same,TGI,MDA-N,> 100 µM
same,TGI,RPMI-8226 leukemia,> 100 µM
same,TGI,SF-295 CNS,> 100 µM
